Measurements reported in patent US20030044413A1, “Methods of limiting apoptosis of cells” (Regents of the University of Minnesota, priority 1998, published 2003).

Columns and labels:
primary rat hepatocytes = assay: DCA-induced apoptosis, Hoechst staining, primary rat hepatocytes; assay type: cell-based
Text: Cell culture and preparation of rat primary hepatocytes. Rat primary hepatocytes were isolated from male Sprague-Dawley rats (200-250 g) by collagenase perfusion as described previously (Mariash et al., J. Biol. Chem, 261, 9583-9586 (1986)). Briefly, rats were aneshtesized with phenobarbitol and the livers were perfused with 0.05% collagenase. Hepatocyte suspensions were obained by passing digested livers through 0.125 mm gauze and washing cells in modified Eagles' medium (MEM, Life Technologies, Inc., Grand Island, N.Y.). […] After isolation, hepatocytes were resuspended in William's E medium (Life Technologies, Inc., Grand Island, N.Y.) supplemented with 26 mM sodium bicarbonate, 23 mM HEPES, 0.01 U/ml insulin, 2 mM L-glutamine, 10 nM dexamethasone, 5.5 mM glucose, 100 U/ml penicillin and 100 U/ml streptomycin and then 1.0×10^6 cells were plated on 35×10 mm […] tissue culture dishes (Becton Dickinson Labware, Lincoln Park, N.J.). The cells were maintained at 37° C. in a humidified atmosphere of 5% CO2 for 3 h. Plates were then washed with medium to remove dead cells, and medium containing 10% heat-inactivated FBS (55° C. for 30 min) was added (Atlanta Biologicals, Inc., Norcross, Ga.). Aliquots of 1.0×10^5 human (HuH-7) hepatoma cells were plated on 35×10 mm tissue culture dishes (Becton Dickinson Labware) and maintained at 37° C. in Dulbecco's MEM (Atlanta Biologicals, Inc.) supplemented with 10% FBS, 100 U/ml penicillin and 100 u/ml streptomycin for 3 h prior to incubation with bile acids.
Incubation of cells with bile acids. […] The medium was gently removed at the indicated time points and scored for nonviable cells by trypan blue dye exclusion. […]
(§1) Morphological evaluation of apoptosis. […] Fluorescence was visualized with a Zeiss standard fluorescence microscope (Carl Zeiss, Inc., Thornwood, N.Y.). […] Stained nuclei were scored by blind analysis and categorized according to the condensation and staining characteristics of chromatin. […] Three fields per dish of approximately 500 nuclei were counted; mean values are expressed as the percent of apoptotic nuclei.

Hep G2 cells = assay: Anti-Fas antibody-induced apoptosis, Hep G2 cells; assay type: cell-based
Procedure: Incubation of cells with ethanol, TGF-β1, anti-Fas antibody or okadaic acid. Freshly isolated rat hepatocytes were cultured for 3 h as described above and then incubated with William's E medium supplemented with either 0.5% ethanol, 50 μM UDCA, ethanol plus UDCA, or no addition (control) for 2 h and 4 h. HuH-7 cells were incubated with Dulbecco's medium supplemented with either 1 nM TGF-β1 (R & D Systems, Minneapolis, Minn.), 100 μM UDCA, TGF-β1+UDCA, or no addition (control) for 24 h, 48 h, and 72 h. Hep G2 cells were incubated with Dulbecco's medium supplemented with either 0.5 μg/ml of anti-Fas antibody CH-11 (Upstate Biotechnology, Inc., Lake Placid, N.Y.), 100 μM UDCA, CH-11+UDCA, or no addition for 48 h. Both HuH-7 cells and human osteogenic sarcoma Saos-2 cells were cultured in Dulbecco's medium supplemented with either 50 nM okadaic acid (Boehringer Mannheim Biochemicals, Inc, Indianapolis, Ind.), 100 μM UDCA, okadaic acid+UDCA, or no addition for 48 h. […]
as §1

Saos-2 cells = assay: Okadaic acid-induced apoptosis, Saos-2 cells; assay type: cell-based, human
Procedure: Incubation of cells with ethanol, TGF-β1, anti-Fas antibody or okadaic acid. Freshly isolated rat hepatocytes were cultured for 3 h as described above and then incubated with William's E medium supplemented with either 0.5% ethanol, 50 μM UDCA, ethanol plus UDCA, or no addition (control) for 2 h and 4 h. HuH-7 cells were incubated with Dulbecco's medium supplemented with either 1 nM TGF-β1 (R & D Systems, Minneapolis, Minn.), 100 μM UDCA, TGF-β1+UDCA, or no addition (control) for 24 h, 48 h, and 72 h. Hep G2 cells were incubated with Dulbecco's medium supplemented with either 0.5 μg/ml of anti-Fas antibody CH-11 (Upstate Biotechnology, Inc., Lake Placid, N.Y.), 100 μM UDCA, CH-11+UDCA, or no addition for 48 h. Both HuH-7 cells and human osteogenic sarcoma Saos-2 cells were cultured in Dulbecco's medium supplemented with either 50 nM okadaic acid (Boehringer Mannheim Biochemicals, Inc, Indianapolis, Ind.), 100 μM UDCA, okadaic acid+UDCA, or no addition for 48 h. In all the combination groups, cells were pretreated with UDCA alone for 60 min prior to addition of ethanol, TGF-β1, anti-Fas antibody or okadaic acid.
Morphological evaluation of apoptosis. Morphology was performed as described previously (Oberhammer et al., Proc. Natl. Acad. Sci. USA 89, 5408-5412 (1992)). Briefly, after fixation (with 4% formaldehyde in PBS, pH 7.4, for 10 min at room temperature), the cells were incubated with Hoechst dye 33258 (Sigma Chemical Co.) at 5 μg/ml in PBS for 5 min, washed with PBS and mounted with PBS:glycerol (3:1, v/v). Fluorescence was visualized with a Zeiss standard fluorescence microscope (Carl Zeiss, Inc., Thornwood, N.Y.). Photographs were taken with Kodak Ektar-1000 film (Eastman Kodak Co.). Stained nuclei were scored by blind analysis and categorized according to the condensation and staining characteristics of chromatin. Normal nuclei were identified as noncondensed chromatin dispersed over the entire nucleus. […] Three fields per dish of approximately 500 nuclei were counted; mean values are expressed as the percent of apoptotic nuclei.

C[C@H](CCC(=O)O)[C@H]1CC[C@H]2[C@@H]3CC[C@@H]4C[C@H](O)CC[C@]4(C)[C@H]3C[C@H](O)[C@]12C [DCA, deoxycholic acid] was tested, and the “percentage of apoptotic cells, increase over control” value (primary rat hepatocytes; 50 μM DCA, 2 h) was 8 fold.

With C[C@H](CCC(=O)O)[C@H]1CC[C@H]2[C@@H]3[C@@H](O)C[C@@H]4C[C@H](O)CC[C@]4(C)[C@H]3CC[C@]12C [UDCA, ursodeoxycholic acid] the cell viability (primary rat hepatocytes; 50 μM DCA + 50 μM UDCA, 6 h) was 88.5±4.9%, the “Inhibition % Apoptosis” value (primary rat hepatocytes; inducer DCA, hepatocytes, inhibition by UDCA) was 90.9 ± 4.6% and the “cells exhibiting apoptotic changes” value (Hep G2 cells; 0.5 μg/ml CH-11 or 100 μM UDCA alone, 48 h) was 0.7%. The “Inhibition % Apoptosis” value (Hep G2 cells; inducer CH-11, Hep G2, inhibition by UDCA) was 83.2 ± 7.0%, the “reduction of the apoptotic response” value (Saos-2 cells; 50 nM okadaic acid + 100 μM UDCA, 48 h) was over 80% and the “Inhibition % Apoptosis” value (Saos-2 cells; inducer OA, Saos-2, inhibition by UDCA) was 81.8 ± 2.3%.

Work on C=C1[C@@H](O)[C@@H]2O[C@]3(CC[C@H](/C=C/[C@@H](C)[C@@H]4CC(C)=C[C@@]5(O[C@H](C[C@@](C)(O)C(=O)O)CC[C@H]5O)O4)O3)CC[C@H]2O[C@@H]1[C@@H](O)C[C@H](C)[C@H]1O[C@@]2(CCCCO2)CC[C@H]1C [okadaic acid] yielded an apoptosis induced (Saos-2 cells; 50 nM okadaic acid, 48 h) of over 30%.
